Laboratory results reported in patent US20120088663A1, “Triazole Compounds Carrying a Sulfur Substituent” (BASF SE, priority 2009, published 2012).

Tests used:
[1] = Log P, partition coefficient between water and octanol; format: physicochemical
Text: Log P is the partition coefficient between water and octanol.

Q: Which logP [1] does the source give for CC1COC(Cn2ncnc2S)(c2ccc(Oc3ccc(Cl)cc3)c(F)c2)O1 (stereo not drawn) [Example 69, 2-{2-[4-(4-Chloro-phenoxy)-3-fluoro-phenyl]-4-methyl-[1,3]dioxolan-2-yl-methyl}-2H-[1,2,4]triazole-3-thiol] here?
A: Its logP is 3.6.

Q: Which melting point does the source give for CC1COC(Cn2cncn2)(c2ccc(Oc3ccccc3)c(F)c2)O1 (stereo not drawn) [Example 35, 1-{2-[3-Fluoro-4-phenoxy-phenyl]-4-methyl-[1,3]dioxolan-2-ylmethyl}-1H-[1,2,4]triazole] here?
A: The melting point was 108 to 110 °C.

Q: For COCC1COC(Cn2ncnc2S)(c2ccc(Oc3ccc(Cl)cc3)cc2Cl)O1 (stereo not drawn) [Example 66, 2-{2-[2-Chloro-4-(4-chloro-phenoxy)-phenyl]-4-methoxymethyl-[1,3]dioxolan-2-ylmethyl}-2H-[1,2,4]triazole-3-thiol], which melting point is on record?
A: The melting point was 153 to 155 °C.

Q: With CC1COC(Cn2cncn2)(c2cc(F)c(Oc3ccccc3)c(F)c2)O1 (stereo not drawn) [Example 41, 1-{2-[3,5-Difluoro-4-phenoxy-phenyl]-4-methyl-[1,3]dioxolan-2-ylmethyl}-1H-[1,2,4]triazole] as the compound, how does the logP [1] read?
A: The logP was 3.7.

Q: For CCCC1COC(Cn2cncn2)(c2ccc(Oc3ccc(Cl)cc3)cc2Cl)O1 (stereo not drawn) [Example 39, 1-{2-[2-Chloro-4-(4-chloro-phenoxy)-phenyl]-4-propyl-[1,3]dioxolan-2-ylmethyl}-1H-[1,2,4]triazole], which logP [1] is on record?
A: The logP was 5.4.

Q: For CC1COC(Cn2cncn2)(c2ccc(Oc3ccc(F)cc3F)cc2)O1 (stereo not drawn) [Example 4, 1-{2-[4-(2,4-Difluoro-phenoxy)-phenyl]-4-methyl-[1,3]dioxolan-2-ylmethyl}-1H-[1,2,4]triazole], which melting point is on record?
A: Its melting point is 83 to 86 °C.

Q: Which melting point does the source give for CC1COC(Cn2ncnc2S)(c2cc(F)c(Oc3ccccc3)c(F)c2)O1 (stereo not drawn) [Example 68, 2-{2-[3,5-Difluoro-4-phenoxy-phenyl]-4-methyl-[1,3]dioxolan-2-yl-methyl}-2H-[1,2,4]triazole-3-thiol] here?
A: The melting point was 139 to 141 °C.

Q: For CC1COC(Cn2ncnc2S)(c2cc(F)c(Oc3ccc(Cl)cc3)cc2F)O1 (stereo not drawn) [Example 63, 2-{2-[4-(4-Chloro-phenoxy)-2,5-difluoro-phenyl]-4-methyl-[1,3]dioxolan-2-ylmethyl}-2H-[1,2,4]triazole-3-thiol], which logP [1] is on record?
A: Its logP is 3.2.

Q: Which melting point does the source give for CCCC1COC(Cn2ncnc2S)(c2ccc(Oc3ccc(Cl)cc3)cc2Cl)O1 (stereo not drawn) [Example 65, 2-{2-[2-Chloro-4-(4-chloro-phenoxy)-phenyl]-4-propyl-[1,3]dioxolan-2-yl-methyl}-2H-[1,2,4]triazole-3-thiol] here?
A: The melting point was 105 to 106 °C.

Q: With CCC1COC(Cn2cncn2)(c2ccc(Oc3ccc(Cl)cc3)cc2Cl)O1 (stereo not drawn) [Example 38, 1-{2-[2-Chloro-4-(4-chloro-phenoxy)-phenyl]-4-ethyl-[1,3]dioxolan-2-ylmethyl}-1H-[1,2,4]triazole] as the compound, how does the logP [1] read?
A: The logP was 5.

Q: Which melting point does the source give for CC1COC(Cn2ncnc2S)(c2ccc(Oc3ccccc3)c(F)c2)O1 (stereo not drawn) [Example 67, 2-{2-[3-Fluoro-4-phenoxy-phenyl]-4-methyl-[1,3]dioxolan-2-yl-methyl}-2H-[1,2,4]triazole-3-thiol] here?
A: The melting point was 62 to 64 °C.

Q: Which melting point does the source give for CC1COC(Cn2cncn2)(c2cc(F)c(Oc3ccccc3)cc2F)O1 (stereo not drawn) [Example 40, 1-{2-[3,6-Difluoro-4-phenoxy-phenyl]-4-methyl-[1,3]dioxolan-2-ylmethyl}-1H-[1,2,4]triazole] here?
A: The melting point was 102 to 104 °C.

Q: For CC1COC(Cn2cncn2)(c2cc(F)c(Oc3ccc(Cl)cc3)cc2F)O1 (stereo not drawn) [Example 37, 1-{2-[4-(4-Chloro-phenoxy)-2,5-difluoro-phenyl]-4-methyl-[1,3]dioxolan-2-ylmethyl}-1H-[1,2,4]triazole], which melting point is on record?
A: Its melting point is 86 to 88 °C.

Q: For CCC1COC(Cn2cncn2)(c2ccc(Oc3c(F)cccc3F)cc2)O1 (stereo not drawn) [Example 9, 1-{2-[4-(2,6-Difluoro-phenoxy)-phenyl]-4-ethyl-[1,3]dioxolan-2-ylmethyl}-1H-[1,2,4]triazole], which melting point is on record?
A: The melting point was 90 to 95 °C.

Q: Which logP [1] does the source give for CC1COC(Cn2ncnc2S)(c2cc(F)c(Oc3ccccc3)cc2F)O1 (stereo not drawn) [Example 64, 2-{2-[2,5-Difluoro-4-phenoxy-phenyl]-4-methyl-[1,3]dioxolan-2-yl-methyl}-2H-[1,2,4]triazole-3-thiol] here?
A: The logP was 2.9.

Q: With CC1COC(Cn2cncn2)(c2ccc(Oc3c(F)cccc3Cl)cc2)O1 (stereo not drawn) [Example 6, 1-{2-[4-(6-Chloro-2-fluoro-phenoxy)-phenyl]-4-methyl-[1,3]dioxolan-2-ylmethyl}-1H-[1,2,4]triazole] as the compound, how does the melting point read?
A: Its melting point is 112 to 114 °C.

Q: For CC1COC(Cn2cncn2)(c2ccc(Oc3cc(F)ccc3F)cc2Cl)O1 (stereo not drawn) [Example 26, 1-{2-[2-Chloro-4-(2,5-difluoro-phenoxy)-phenyl]-4-methyl-[1,3]dioxolan-2-ylmethyl}-1H-[1,2,4]triazole], which melting point is on record?
A: Its melting point is 119.9 °C.

Q: For CCC1COC(Cn2cncn2)(c2ccc(Oc3ccc(F)cc3F)cc2)O1 (stereo not drawn) [Example 5, 1-{2-[4-(2,4-Difluoro-phenoxy)-phenyl]-4-ethyl-[1,3]dioxolan-2-ylmethyl}-1H-[1,2,4]triazole], which melting point is on record?
A: Its melting point is 112 to 114 °C.

Q: For CC1COC(Cn2cncn2)(c2ccc(Oc3ccc(Cl)cc3F)cc2)O1 (stereo not drawn) [Example 3, 1-{2-[4-(4-Chloro-2-fluoro-phenoxy)-phenyl]-4-methyl-[1,3]dioxolan-2-ylmethyl}-1H-[1,2,4]triazole], which melting point is on record?
A: The melting point was 113 to 115 °C.

Q: With CC1COC(Cn2cncn2)(c2ccc(Oc3ccc(Cl)cc3)c(F)c2)O1 (stereo not drawn) [Example 32, 1-{2-[4-(4-Chloro-phenoxy)-3-fluoro-phenyl]-4-methyl-[1,3]dioxolan-2-ylmethyl}-1H-[1,2,4]triazole] as the compound, how does the logP [1] read?
A: Its logP is 4.2.

Q: For CC1COC(Cn2ncnc2S)(c2ccc(Oc3ccc(Cl)cc3)cc2F)O1 (stereo not drawn) [Example 70, 2-{2-[4-(4-Chloro-phenoxy)-2-fluoro-phenyl]-4-methyl-[1,3]dioxolan-2-yl-methyl}-2H-[1,2,4]triazole-3-thiol], which logP [1] is on record?
A: The logP was 3.5.
